Results taken from PubChem BioAssay AID1963831 (Molecular Pharmacology Branch, DTP, NCI, 2024).
Several values for one entry are separate records, joined by “and”; a condition that tells them apart may be missing. Equal entries are not always repeated.

Test system: 889142-216-R-J1-PDC complex spheroid viability
Experiment: Anticancer human tumor 889142-216-R-J1-PDC patient-derived bladder carcinoma cell line growth inhibition [POLQ]
Conditions: for viability, T/C: stronger effect = lower value
Experimental: Multicellular complex tumor spheroid response to Polymerase (POL) inhibitors (novobiocin, ART-558, RP6685) in combination with a variety of drugs and investigational agents in selected tumor cell lines
The POL inhibitors (novobiocin, ART-558, and RP6685) were evaluated both individually and in combination with standard of care and investigational anticancer small molecules within a complex spheroid model of solid tumors. . Complex spheroids include a stromal component modeled by human endothelial cells (HUVEC) and fibroblasts modeled by human mesenchymal stem cells (MSCs). The concentration ranges selected for each drug and investigational agent were based upon clinically achievable concentrations if the clinical Cmax of the agent was known.
Compounds. The drugs and investigational agents: novobiocin (NSC847541), ART-558 (NSC835418), RP-6685 (NSC848927), peposertib (NSC802822), ceralasertib (NSC780249), elimusertib (NSC800525), camonsertib (NSC841442), AZD-1390 (NSC803789), olaparib (NSC753686), talazoparib (NSC767125), rucaparib (NSC756644), sotorasib (NSC818433), MRTX-1133 (NSC836407), SN-38 (NSC673596), topotecan (NSC609699), epotoside (NSC141540), doxorubicin (NSC123127), gemcitabine (NSC613327), 5-fluorouracil (NSC19893), paclitaxel (NSC125973), vemurafenib (NSC761431), MSA-2 (NSC828583), SN-011 (NSC837082), adavosertib (NSC754352), prexasertib (NSC758257), carboplatin (NSC241240) and oxaliplatin (NSC266046), were obtained from the National Cancer Institute (NCI) Developmental Therapeutics Program Chemical Repository (21). The FDA-approved anticancer drug set is available from the Developmental Therapeutics Program at https://dtp.cancer.gov/organization/dscb/obtaining/. […] The stock solutions were prepared in dimethyl sulfoxide (DMSO, Sigma-Aldrich, St. Louis, MO, cat. D2650), except for the platinum compounds which were prepared in saline (Quality Biological, Gaithersburg, MD, cat. 114-055-101), at 800-fold the tested concentration and stored at -70 degrees C prior to their use. All drugs and investigational agents were tested over a range starting from a high concentration at or near the clinical Cmax and decreasing in half-log increments. If the clinical Cmax for an agent had not been determined, the highest concentration tested was 10 microM, except for SN-38, which was tested at a high concentration of 1 microM.
Cell Culture. All cells were maintained in an incubator at 37 degrees C and 5% CO2 with 95% humidity. The PDC lines were cultured according to standard operating procedures established by the NCI PDMR (https://pdmr.cancer.gov). Table 3 of the manuscript, lists the cell lines along with the number of the three cell types plated to form the mct-spheroids and media for tumor cell growth. After thawing, all PDC lines, except 997537-175-T-J1-PDC and 415267-285-R-J2-PDC, were cultured in Matrigel-coated flasks prepared with a working solution of 1X Ham's F-12 nutrient mix, without supplementation (Thermo Fisher Scientific, cat. 11765054), 100 U/mL penicillin-streptomycin (Thermo Fisher Scientific, cat. 15140122), and 2.5% Matrigel (Corning Inc., Corning, NY, cat. 354248) for the first three passages. The two PDC lines 997537-175-T-J1-PDC and 415267-285-R-J2-PDC were cultured on uncoated flasks. The 857933-349-R-J2-PDC line was cultured in 6C/Colon 1B media containing advanced DMEM/F-12 (Thermo Fisher Scientific, cat. 12634028), 10 mM HEPES (Thermo Fisher Scientific, cat. 15630080), 1X GlutaMAX supplement (Thermo Fisher Scientific, cat. 35050061), 0.1 mg/mL primocin (InvivoGen, San Diego, CA, cat. ant-pm-2), 10% defined fetal bovine serum, heat inactivated (HyClone Laboratories Inc., Logan, UT, cat. SH30070.03HI), 50% L-WRN conditioned media (ATCC, cat. CRL-3276), 1.25 mM N-Acetyl-L-cysteine (Sigma-Aldrich, cat. A9165), 10 mM nicotinamide (Sigma-Aldrich, cat. N0636), 1X B-27 supplement (Thermo Fisher Scientific, cat. 17504044), 1X N-2 supplement (Thermo Fisher Scientific, cat. […]
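Also: spheroids exposed to compounds for seven days.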
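For viability, T/C in this document: 100% = DMSO vehicle control viability.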

In the case of COc1cccc2c1C(=O)c1c(O)c3c(c(O)c1C2=O)CC(O)(C(=O)CO)CC3OC1CC(N)C(O)C(C)O1 (stereo unspecified), the viability, T/C (compound 0.0316 µM) is reported as 59.4% and 71.1% and 60.1%, the viability, T/C (compound 0.1 µM) is reported as 61.1% and 79% and 56.2% and the viability, T/C (compound 0.316 µM) is reported as 46.8% and 46.4% and 36.7%. The viability, T/C (compound 1 µM) was 2.75% and 11.6% and 1.69%, the viability, T/C (compound 3.16 µM) was 0.71% and 1.11% and 0.66% and the viability, T/C (compound 10 µM) was 1% and 1.39% and 1.05%. The IC50 (curve of compound) was 0.241 µM and 0.29 µM and 0.153 µM.

For COc1cccc(OCCCN)c1-c1cc(Nc2cnc(C#N)cn2)n[nH]1, the viability, T/C (compound 0.00316 µM) was 93.9% and 84.5% and 84.6%, the viability, T/C (compound 0.01 µM) was 53.2% and 89.7% and 71.7% and the viability, T/C (compound 0.0316 µM) was 42.5% and 62.6% and 50.3%. The viability, T/C (compound 0.1 µM) was 34.7% and 51.5% and 47.2%, the viability, T/C (compound 0.316 µM) was 37.9% and 47.7% and 42.3% and the viability, T/C (compound 1 µM) was 34.4% and 42.8% and 40.6%. For the same molecule, the IC50 (curve of compound) was 0.0141 µM and 0.0818 µM and 0.041 µM.

Work on COc1cccc2c1C(=O)c1c(O)c3c(c(O)c1C2=O)CC(O)(C(=O)CO)CC3OC1CC(N)C(O)C(C)O1 (stereo unspecified) + Nc1ccc(C#CCN(C(=O)Cc2ncc(C(F)(F)F)cc2C(F)(F)F)c2ccc(F)cc2)nn1 yielded an IC50 (curve of first compound, second compound 0.0316 µM) of 0.338 µM, an IC50 (curve of first compound, second compound 0.1 µM) of 0.339 µM and an IC50 (curve of first compound, second compound 0.316 µM) of 0.254 µM. The IC50 (curve of first compound, second compound 1 µM) was 0.45 µM, the IC50 (curve of first compound, second compound 3.16 µM) was 0.287 µM and the IC50 (curve of first compound, second compound 10 µM) was 0.318 µM. The viability, T/C (second compound 0.0316 µM, first compound 0.0316 µM) was 55.1%, the viability, T/C (second compound 0.0316 µM, first compound 0.1 µM) was 78.9% and the viability, T/C (second compound 0.0316 µM, first compound 0.316 µM) was 52.2%. The viability, T/C (second compound 0.0316 µM, first compound 1 µM) was 6.13%, the viability, T/C (second compound 0.0316 µM, first compound 3.16 µM) was 0.74% and the viability, T/C (second compound 0.0316 µM, first compound 10 µM) was 1.95%. For the same molecule, the viability, T/C (second compound 0.1 µM, first compound 0.0316 µM) was 71.8%, the viability, T/C (second compound 0.1 µM, first compound 0.1 µM) was 79.8% and the viability, T/C (second compound 0.1 µM, first compound 0.316 µM) was 52%. It also gave a viability, T/C (second compound 0.1 µM, first compound 1 µM) of 9.08%, a viability, T/C (second compound 0.1 µM, first compound 3.16 µM) of 1.08% and a viability, T/C (second compound 0.1 µM, first compound 10 µM) of 1.72%. For the same molecule, the viability, T/C (second compound 0.316 µM, first compound 0.0316 µM) was 66.6%, the viability, T/C (second compound 0.316 µM, first compound 0.1 µM) was 76.2% and the viability, T/C (second compound 0.316 µM, first compound 0.316 µM) was 44.1%. It also gave a viability, T/C (second compound 0.316 µM, first compound 1 µM) of 8.99%, a viability, T/C (second compound 0.316 µM, first compound 3.16 µM) of 1.03% and a viability, T/C (second compound 0.316 µM, first compound 10 µM) of 1.55%. It also gave a viability, T/C (second compound 1 µM, first compound 0.0316 µM) of 77.8%, a viability, T/C (second compound 1 µM, first compound 0.1 µM) of 75.3% and a viability, T/C (second compound 1 µM, first compound 0.316 µM) of 68.6%. It also gave a viability, T/C (second compound 1 µM, first compound 1 µM) of 7.94%, a viability, T/C (second compound 1 µM, first compound 3.16 µM) of 1.14% and a viability, T/C (second compound 1 µM, first compound 10 µM) of 2.34%. It also gave a viability, T/C (second compound 3.16 µM, first compound 0.0316 µM) of 66%, a viability, T/C (second compound 3.16 µM, first compound 0.1 µM) of 77.7% and a viability, T/C (second compound 3.16 µM, first compound 0.316 µM) of 47.9%. The viability, T/C (second compound 3.16 µM, first compound 1 µM) was 4.28%, the viability, T/C (second compound 3.16 µM, first compound 3.16 µM) was 0.84% and the viability, T/C (second compound 3.16 µM, first compound 10 µM) was 1.58%. It also gave a viability, T/C (second compound 10 µM, first compound 0.0316 µM) of 71.5%, a viability, T/C (second compound 10 µM, first compound 0.1 µM) of 72.3% and a viability, T/C (second compound 10 µM, first compound 0.316 µM) of 50.2%. For the same molecule, the viability, T/C (second compound 10 µM, first compound 1 µM) was 3.75%, the viability, T/C (second compound 10 µM, first compound 3.16 µM) was 1.07% and the viability, T/C (second compound 10 µM, first compound 10 µM) was 1.08%.
